Experimental data taken from patent publication US20210059959A1, “USE OF CANNABINOIDS IN THE TREATMENT OF MENTAL DISORDERS” (GW Pharma Limited, priority 2015, published 2021).

Tested on: participants with schizophrenia or related psychotic disorder
Experiment: Scale for the Assessment of Negative Symptoms (SANS), double-blind placebo-controlled study of CBD as adjunctive therapy
Type: in vivo, human
Details: CBD vs placebo
Procedure: Example 1 below describes the use of a highly purified cannabis extract comprising cannabidiol (CBD) in a human clinical trial. Example 1 describes data produced in a double-blind, randomised, placebo-controlled, parallel group study of highly purified CBD as adjunctive therapy in first line treatment of schizophrenia or related psychotic disorder.
An eight-week, multi-centre, double-blind, randomised, placebo-controlled, parallel group study was conducted with the aim to determine the efficacy, safety and tolerability of highly purified CBD as adjunctive therapy in first line treatment of schizophrenia or related psychotic disorder.
This study evaluated the efficacy of highly purified CBD compared with placebo on the participant's PANSS Total score, ‘P’, ‘N’, ‘G’, SANS and BACS scores.
Changes from baseline in PANSS scores (Total, ‘P’, ‘N’ and ‘G’), SANS and BACS were recorded at the start of the study (baseline) and at the end of treatment (after 6 weeks treatment with CBD or placebo).
For inclusion in the study participants were required to be male or female aged 18 to 65 years, diagnosed with schizophrenia or a related psychotic disorder (such as schizoaffective or schizophreniform disorder) as defined by the Diagnostic and Statistical Manual of Mental Disorders Version 4. Participants must have been treated for a minimum of four-weeks and be on a stable dose of their current antipsychotic medication. […] A PANSS score in excess of 60 infers that the patient has symptoms related to schizophrenia or related disorders.
The participants were randomised to one of two treatment groups which each consisted of 39 participants. Treatment was administered as either 5 ml CBD (100 mg/ml) oral solution to be taken twice daily or 5 ml matched placebo oral solution to be taken twice daily.
Scale for the Assessment of Negative Symptoms (SANS)
SANS assesses five symptom complexes to obtain clinical ratings of negative symptoms in participants with schizophrenia or related psychotic disorder. They are: affective blunting; alogia (impoverished thinking); avolition/apathy; anhedonia/asociality; and disturbance of attention.
Assessments are conducted on a six-point scale (0=not at all to 5=severe). This scale was measured at each assessment visit (Visit 1-4)

[1] = patients on amisulpride, P = 0.8772

## C=C(C)[C@@H]1CCC(C)=C[C@H]1c1c(O)cc(CCCCC)cc1O [CBD, Cannabidiol]
All patients, P = 0.0364
  Change in baseline scores, SANS question 19: Sexual interest and activity: difference: (−0.4)
All patients, P = 0.0605
  Change in baseline scores, SANS sub-scale 4 (anhedonia/asociality): difference: (−1.2)
All patients, P = 0.0610
  Change in baseline scores, SANS question 24: Inattentiveness during mental status testing: difference: (−0.3)
All patients, P = 0.0660
  Change in baseline scores, SANS sub-scale 5 (disturbance of attention): difference: (−0.7)
All patients, P = 0.0773
  Change in baseline scores, SANS question 25: Global rating of attention: difference: (−0.2)
All patients, P = 0.0918
  Change in baseline scores, SANS question 20: Ability to feel closeness and intimacy: difference: (−1.1)
All patients, P = 0.1168
  Change in baseline scores, SANS total score: difference: (−3.5)
All patients, P = 0.1535
  Change in baseline scores, SANS question 18: Recreational interests and activity: difference: (−0.3)
All patients, P = 0.1787
  Change in baseline scores, SANS question 22: Global rating of anhedonia: difference: (−0.2)
All patients, P = 0.2445
  Change in baseline scores, SANS question 23: Social inattentiveness: difference: (−0.2)
All patients, P = 0.8984
  Change in baseline scores, SANS question 21: Relationships with friends and peers: difference: (0.0)
Patients on amisulpride, P = 0.0687
  Change in baseline scores, SANS score: difference: (16.6)
Patients on amisulpride, P = 0.0756
  Change in baseline scores, SANS question 25: Global rating of attention: difference: (1.0)
Patients on amisulpride, P = 0.1971
  Change in baseline scores, SANS question 19: Sexual interest and activity: difference: (−0.8)
Patients on amisulpride, P = 0.3833
  Change in baseline scores, SANS question 18: Recreational interests and activity: difference: (1.0)
Patients on amisulpride, P = 0.4023
  Change in baseline scores, SANS sub-scale 5 (disturbance of attention): difference: (1.3)
Patients on amisulpride, P = 0.4206
  Change in baseline scores, SANS question 23: Social inattentiveness: difference: (0.5)
Patients on amisulpride, P = 0.4357
  Change in baseline scores, SANS sub-scale 4 (anhedonia/asociality): difference: (1.4)
Patients on amisulpride, P = 0.5671
  Change in baseline scores, SANS question 21: Relationships with friends and peers: difference: (0.5)
Patients on amisulpride, P = 0.8060
  Change in baseline scores, SANS question 24: Inattentiveness during mental status testing: difference: (−0.2)
Patients on amisulpride, P = 0.8729
  Change in baseline scores, SANS question 15: Impersistence at work or school: difference: (0.0)
[1]
  Change in baseline scores, SANS question 20: Ability to feel closeness and intimacy: difference: (0.1)
  Change in baseline scores, SANS question 22: Global rating of anhedonia: difference: (0.1)
Patients on aripiprazole, P = 0.0412
  Change in baseline scores, SANS question 25: Global rating of attention: difference: (−0.4)
Patients on aripiprazole, P = 0.1133
  Change in baseline scores, SANS sub-scale 5 (disturbance of attention): difference: (−1.0)
Patients on aripiprazole, P = 0.1740
  Change in baseline scores, SANS question 24: Inattentiveness during mental status testing: difference: (−0.4)
Patients on aripiprazole, P = 0.1966
  Change in baseline scores, SANS question 15: Impersistence at work or school: difference: (−0.5)
Patients on aripiprazole, P = 0.2979
  Change in baseline scores, SANS question 18: Recreational interests and activity: difference: (−0.3)
Patients on aripiprazole, P = 0.3546
  Change in baseline scores, SANS question 23: Social inattentiveness: difference: (−0.2)
Patients on aripiprazole, P = 0.4231
  Change in baseline scores, SANS question 19: Sexual interest and activity: difference: (−0.3)
Patients on aripiprazole, P = 0.7086
  Change in baseline scores, SANS sub-scale 4 (anhedonia/asociality): difference: (−0.5)
Patients on aripiprazole, P = 0.7642
  Change in baseline scores, SANS score: difference: (−1.4)
Patients on aripiprazole, P = 0.8346
  Change in baseline scores, SANS question 21: Relationships with friends and peers: difference: (−0.1)
Patients on aripiprazole, P = 0.8965
  Change in baseline scores, SANS question 20: Ability to feel closeness and intimacy: difference: (0.0)
Patients on aripiprazole, P = 0.9259
  Change in baseline scores, SANS question 22: Global rating of anhedonia: difference: (0.0)
Patients on olanzapine, P = 0.0050
  Change in baseline scores, SANS score: difference: (−14.3)
Patients on olanzapine, P = 0.0069
  Change in baseline scores, SANS question 20: Ability to feel closeness and intimacy: difference: (−0.9)
Patients on olanzapine, P = 0.0071
  Change in baseline scores, SANS sub-scale 4 (anhedonia/asociality): difference: (−3.7)
Patients on olanzapine, P = 0.0242
  Change in baseline scores, SANS question 15: Impersistence at work or school: difference: (−0.9)
Patients on olanzapine, P = 0.0475
  Change in baseline scores, SANS question 22: Global rating of anhedonia: difference: (−0.6)
Patients on olanzapine, P = 0.0689
  Change in baseline scores, SANS question 18: Recreational interests and activity: difference: (−0.8)
Patients on olanzapine, P = 0.0794
  Change in baseline scores, SANS question 19: Sexual interest and activity: difference: (−0.9)
Patients on olanzapine, P = 0.1064
  Change in baseline scores, SANS question 25: Global rating of attention: difference: (−0.6)
Patients on olanzapine, P = 0.3556
  Change in baseline scores, SANS sub-scale 5 (disturbance of attention): difference: (−1.0)
Patients on olanzapine, P = 0.4829
  Change in baseline scores, SANS question 21: Relationships with friends and peers: difference: (−0.2)
Patients on olanzapine, P = 0.5922
  Change in baseline scores, SANS question 24: Inattentiveness during mental status testing: difference: (−0.2)
Patients on olanzapine, P = 0.6757
  Change in baseline scores, SANS question 23: Social inattentiveness: difference: (−0.2)
Patients on other antipsychotics, P = 0.0654
  Change in baseline scores, SANS question 24: Inattentiveness during mental status testing: difference: (−1.6)
Patients on other antipsychotics, P = 0.1763
  Change in baseline scores, SANS question 25: Global rating of attention: difference: (0.8)
Patients on other antipsychotics, P = 0.2601
  Change in baseline scores, SANS question 20: Ability to feel closeness and intimacy: difference: (−0.4)
Patients on other antipsychotics, P = 0.2746
  Change in baseline scores, SANS question 15: Impersistence at work or school: difference: (−10.6)
Patients on other antipsychotics, P = 0.3359
  Change in baseline scores, SANS score: difference: (−8.3)
Patients on other antipsychotics, P = 0.4192
  Change in baseline scores, SANS sub-scale 5 (disturbance of attention): difference: (−1.5)
Patients on other antipsychotics, P = 0.4246
  Change in baseline scores, SANS question 23: Social inattentiveness: difference: (−0.5)
Patients on other antipsychotics, P = 0.5465
  Change in baseline scores, SANS sub-scale 4 (anhedonia/asociality): difference: (−0.8)
Patients on other antipsychotics, P = 0.6373
  Change in baseline scores, SANS question 21: Relationships with friends and peers: difference: (−0.2)
Patients on other antipsychotics, P = 0.6969
  Change in baseline scores, SANS question 22: Global rating of anhedonia: difference: (−0.2)
Patients on other antipsychotics, P = 0.8182
  Change in baseline scores, SANS question 18: Recreational interests and activity: difference: (−0.1)
Patients on other antipsychotics, P = 0.9656
  Change in baseline scores, SANS question 19: Sexual interest and activity: difference: (0.0)
Patients on quetiapine, P = 0.0017
  Change in baseline scores, SANS sub-scale 4 (anhedonia/asociality): difference: (−4.8)
Patients on quetiapine, P = 0.0044
  Change in baseline scores, SANS question 21: Relationships with friends and peers: difference: (−0.7)
Patients on quetiapine, P = 0.0233
  Change in baseline scores, SANS question 18: Recreational interests and activity: difference: (−1.3)
Patients on quetiapine, P = 0.0501
  Change in baseline scores, SANS question 19: Sexual interest and activity: difference: (−1.4)
Patients on quetiapine, P = 0.0862
  Change in baseline scores, SANS question 23: Social inattentiveness: difference: (−0.5)
Patients on quetiapine, P = 0.1043
  Change in baseline scores, SANS question 22: Global rating of anhedonia: difference: (−1.1)
Patients on quetiapine, P = 0.1330
  Change in baseline scores, SANS question 20: Ability to feel closeness and intimacy: difference: (−0.4)
Patients on quetiapine, P = 0.2697
  Change in baseline scores, SANS question 25: Global rating of attention: difference: (−0.4)
Patients on quetiapine, P = 0.2701
  Change in baseline scores, SANS sub-scale 5 (disturbance of attention): difference: (−1.1)
Patients on quetiapine, P = 0.3150
  Change in baseline scores, SANS score: difference: (−5.4)
Patients on quetiapine, P = 0.4421
  Change in baseline scores, SANS question 24: Inattentiveness during mental status testing: difference: (−0.6)
Patients on quetiapine, P = 0.6640
  Change in baseline scores, SANS question 15: Impersistence at work or school: difference: (5.1)
Patients on risperidone, P = 0.0791
  Change in baseline scores, SANS question 21: Relationships with friends and peers: difference: (0.5)
Patients on risperidone, P = 0.2800
  Change in baseline scores, SANS sub-scale 4 (anhedonia/asociality): difference: (1.2)
Patients on risperidone, P = 0.2955
  Change in baseline scores, SANS score: difference: (3.1)
Patients on risperidone, P = 0.3302
  Change in baseline scores, SANS sub-scale 5 (disturbance of attention): difference: (0.7)
Patients on risperidone, P = 0.3389
  Change in baseline scores, SANS question 25: Global rating of attention: difference: (0.2)
Patients on risperidone, P = 0.4231
  Change in baseline scores, SANS question 24: Inattentiveness during mental status testing: difference: (0.3)
Patients on risperidone, P = 0.4560
  Change in baseline scores, SANS question 18: Recreational interests and activity: difference: (−0.3)
Patients on risperidone, P = 0.5207
  Change in baseline scores, SANS question 23: Social inattentiveness: difference: (0.2)
Patients on risperidone, P = 0.6285
  Change in baseline scores, SANS question 15: Impersistence at work or school: difference: (0.1)
Patients on risperidone, P = 0.6889
  Change in baseline scores, SANS question 19: Sexual interest and activity: difference: (0.1)
Patients on risperidone, P = 0.8648
  Change in baseline scores, SANS question 20: Ability to feel closeness and intimacy: difference: (0.0)
Patients on risperidone, P = 0.9940
  Change in baseline scores, SANS question 22: Global rating of anhedonia: difference: (0.0)
